From patent US20060069132A1, “Azolecarboxamide herbicides” (priority 2004, published 2006)
Like-named read-outs stand apart in the source and are kept apart here.

Columns and labels:
woolly cupgrass = assay: Test C pre-/postemergence herbicide test; assay type: in vivo, Eriochloa villosa; conditions: Eriochloa villosa, pre-emergence, 312 h, read-out: Plant response rating, Cupgrass, Woolly; for pest or weed control at 62 g/ha: 62 g ai/ha, preemergence, scale 0 to 100; for pest or weed control at 125 g/ha: 125 g ai/ha, scale 0 (no effect) to 100 (complete control); for pest or weed control at 125 g/ha / pest or weed control at 500 g/ha: visual, 12 to 14 days; for pest or weed control at 250 g/ha: 250 g ai/ha, scale 0-100; for pest or weed control at 500 g/ha: 500 g ai/ha, scale 0 to 100 (0 no effect, 100 complete control)
Method in brief: (§1)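 Visual ratings on a 0–100 scale (100 = complete control) made versus untreated controls after 12 to 14 greenhouse days. Test chemicals, formulated in surfactant-containing non-phytotoxic solvent, applied preemergence to planted seeds or postemergence to 1- to 4-leaf plants (2 to 18 cm).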

barnyardgrass = assay: Test A pre-/postemergence herbicide test; assay type: in vivo, Echinochloa crus-galli; conditions: Echinochloa crus-galli, 240 h; for pest or weed control at 500 g/ha: 500 g ai/ha; for pest or weed control at 2000 g/ha: 2000 g ai/ha
Method in brief: (§2)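 Visual injury scores on a 0–100 scale (100 = complete control) taken about ten days post-treatment in greenhouse against untreated controls; dash means no result. Treatments: preemergence soil spray and postemergence spray to runoff on one- to two-leaf plants 2 to 10 cm tall, surfactant-containing formulation.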

bermudagrass = assay: Test C pre-/postemergence herbicide test; assay type: in vivo, Cynodon dactylon; conditions: Cynodon dactylon, pre-emergence, 312 h; for pest or weed control at 62 g/ha: 62 g ai/ha, preemergence; for pest or weed control at 62 g/ha / pest or weed control at 500 g/ha: scale 0 to 100, 0 no effect, 100 complete control; for pest or weed control at 62 g/ha / pest or weed control at 125 g/ha / pest or weed control at 250 g/ha: read-out: Plant response rating, Bermudagrass; for pest or weed control at 125 g/ha: 125 g ai/ha, scale 0 (no effect) to 100 (complete control), visual, 12 to 14 days; for pest or weed control at 250 g/ha: 250 g ai/ha, scale 0-100; for pest or weed control at 500 g/ha: Preemergence, 500 g ai/ha, read-out: Bermudagrass plant response rating
Method in brief: as §1

[1] = tested on: small flower umbrella sedge; assay: Test B flooded paddy test; assay type: in vivo, Cyperus difformis; conditions: Cyperus difformis, 336 h, 1000 g ai/ha, scale 0 to 100 (0 no effect, 100 complete control), read-out: Sedge, Umbrella plant response rating
Method in brief: (§3)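 Plants grow to 1- to 4-leaf stage (2–18 cm) for postemergence spraying, or to 2-leaf stage for the paddy test. Formulated compound is applied. Greenhouse holding lasts 13–15 days. Response is scored visually relative to controls, 0 no effect to 100 complete control; a dash means no result.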

goosegrass = assay: Test C pre-/postemergence herbicide test; assay type: in vivo, Eleusine indica; conditions: Eleusine indica, pre-emergence, 312 h, read-out: Plant response rating, Goosegrass; for pest or weed control at 62 g/ha: 62 g ai/ha, preemergence, scale 0 to 100; for pest or weed control at 125 g/ha: 125 g ai/ha, scale 0 (no effect) to 100 (complete control); for pest or weed control at 125 g/ha / pest or weed control at 500 g/ha: visual, 12 to 14 days; for pest or weed control at 250 g/ha: 250 g ai/ha, scale 0-100; for pest or weed control at 500 g/ha: 500 g ai/ha, scale 0 to 100 (0 no effect, 100 complete control)
Method in brief: as §1

redroot pigweed = assay: Test A pre-/postemergence herbicide test; assay type: in vivo, Amaranthus retroflexus; conditions: Amaranthus retroflexus, 240 h; for pest or weed control at 500 g/ha: 500 g ai/ha; for pest or weed control at 2000 g/ha: 2000 g ai/ha
Method in brief: as §2

rice = assay: Test C flooded paddy test; assay type: in vivo, Oryza sativa; conditions: Oryza sativa; for plant injury at 62 g/ha: 62 g ai/ha; for plant injury at 125 g/ha: 125 g ai/ha; for plant injury at 250 g/ha: 250 g ai/ha, scale of 0 to 100, 0 is no effect, 100 is complete control; for plant injury at 500 g/ha: 500 g ai/ha, visual rating after 12 to 14 days, read-out: Plant response rating, Rice
Method in brief: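 Plants were grown to the 1- to 4-leaf stage (2–18 cm) and then treated postemergence, or grown to the 2-leaf stage for the flooded paddy test. They were held in a greenhouse for 12 to 14 days and then scored by eye against controls, where 0 is no effect and 100 is complete control.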

large crabgrass = assay: Test A pre-/postemergence herbicide test; assay type: in vivo, Digitaria sanguinalis; conditions: Digitaria sanguinalis, 240 h; for pest or weed control at 500 g/ha: 500 g ai/ha; for pest or weed control at 2000 g/ha: 2000 g ai/ha
Method in brief: as §2

blackgrass = assay: Test B postemergence herbicide test; assay type: in vivo, Alopecurus myosuroides; conditions: Alopecurus myosuroides, post-emergence, 336 h, postemergence, visual rating, scale 0 (no effect) to 100 (complete control), read-out: Blackgrass plant response rating; for pest or weed control at 125 g/ha: 125 g ai/ha; for pest or weed control at 500 g/ha: 500 g ai/ha
Method in brief: as §3

[2] = post-emergence, Postemergence, 0 to 100 scale, 0 no effect, 100 complete control, read-out: Barnyardgrass plant response rating
[3] = post-emergence, Postemergence, 0 to 100 scale, 0 no effect, 100 complete control, read-out: Plant response rating, Barnyardgrass
[4] = pre-emergence, Preemergence, visual rating, 0 to 100 scale (0 no effect, 100 complete control), read-out: Barnyardgrass plant response rating
[5] = pre-emergence, preemergence, visual injury, 0 to 100 scale (0 no effect, 100 complete control), read-out: Barnyardgrass plant response rating
[6] = post-emergence, Postemergence, 0 to 100 scale, 0 no effect, 100 complete control, read-out: Pigweed plant response rating
[7] = post-emergence, Postemergence, 0 to 100 scale, 0 no effect, 100 complete control, read-out: Plant response rating, Pigweed
[8] = pre-emergence, Preemergence, visual rating, 0 to 100 scale (0 no effect, 100 complete control), read-out: Pigweed plant response rating
[9] = pre-emergence, preemergence, visual injury, 0 to 100 scale (0 no effect, 100 complete control), read-out: Pigweed plant response rating
[10] = scale 0 to 100 (0 no effect, 100 complete control), read-out: Rice plant response rating
[11] = read-out: Rice plant response rating
[12] = scale 0 to 100 (0 no effect, 100 complete control)
[13] = post-emergence, Postemergence, 0 to 100 scale, 0 no effect, 100 complete control, read-out: Crabgrass, Large plant response rating
[14] = post-emergence, Postemergence, 0 to 100 scale, 0 no effect, 100 complete control, read-out: Plant response rating, Crabgrass, Large
[15] = pre-emergence, Preemergence, visual rating, 0 to 100 scale (0 no effect, 100 complete control), read-out: Crabgrass, Large plant response rating
[16] = pre-emergence, preemergence, visual injury, 0 to 100 scale (0 no effect, 100 complete control), read-out: Crabgrass, Large plant response rating

Compound	pest or weed control at 62 g/ha (woolly cupgrass)	pest or weed control at 125 g/ha (woolly cupgrass)	pest or weed control at 250 g/ha (woolly cupgrass)	pest or weed control at 500 g/ha (woolly cupgrass)	pest or weed control at 500 g/ha (barnyardgrass; [2])	pest or weed control at 2000 g/ha (barnyardgrass; [3])	pest or weed control at 2000 g/ha (barnyardgrass; [4])	pest or weed control at 500 g/ha (barnyardgrass; [5])	pest or weed control at 62 g/ha (bermudagrass)	pest or weed control at 125 g/ha (bermudagrass)	pest or weed control at 250 g/ha (bermudagrass)	pest or weed control at 500 g/ha (bermudagrass)	pest or weed control at 62 g/ha (goosegrass)	pest or weed control at 125 g/ha (goosegrass)	pest or weed control at 250 g/ha (goosegrass)	pest or weed control at 500 g/ha (goosegrass)	pest or weed control at 500 g/ha (redroot pigweed; [6])	pest or weed control at 2000 g/ha (redroot pigweed; [7])	pest or weed control at 2000 g/ha (redroot pigweed; [8])	pest or weed control at 500 g/ha (redroot pigweed; [9])	also measured
CCc1nn(C(C)(C)C)cc1C(=O)Nc1cc(C(=O)N(C)C)ccc1F [Compound 222, N-[5-[(dimethylamino)carbonyl]-2-fluorophenyl]-1-(1,1-dimethylethyl)-3-ethyl-1H-pyrazole-4-carboxamide]	20%	100%	100%	100%	75%	90%	100%	95%	85%	100%	100%	100%	80%	100%	100%	100%	75%	100%	90%	90%	pest or weed control at 1000 g/ha ([1]; visual rating, 13 to 15 days): 70%; plant injury at 62 g/ha (rice; [10]): 30%; plant injury at 125 g/ha (rice; [10]): 70%; plant injury at 250 g/ha (rice; [11]): 85%; plant injury at 500 g/ha (rice; [12]): 85%; pest or weed control at 500 g/ha (large crabgrass; [13]): 80%; pest or weed control at 2000 g/ha (large crabgrass; [14]): 85%; pest or weed control at 2000 g/ha (large crabgrass; [15]): 95%; pest or weed control at 500 g/ha (large crabgrass; [16]): 100%; pest or weed control at 125 g/ha (blackgrass): 0%; pest or weed control at 500 g/ha (blackgrass): 20%
CCN1N=C(C(C)(C)C)CC1C(=O)Nc1cc(C(=O)N(C)C)ccc1F (centres unmarked) [Compound 268, N-[5-[(dimethylamino)carbonyl]-2-fluorophenyl]-3-(1,1-dimethylethyl)-1-ethyl-4,5-dihydro-1H-pyrazole-5-carboxamide]	50%	70%	95%	95%	80%	80%	100%	100%	100%	100%	100%	100%	85%	90%	100%	100%	35%	85%	100%	100%	pest or weed control at 1000 g/ha [1]: 80%; plant injury at 62 g/ha (rice; scale 0 to 100, read-out: Rice plant response rating): 75%; plant injury at 125 g/ha (rice; [10]): 85%; plant injury at 250 g/ha (rice; [11]): 90%; plant injury at 500 g/ha (rice; [12]): 90%; pest or weed control at 500 g/ha (large crabgrass; [13]): 50%; pest or weed control at 2000 g/ha (large crabgrass; [14]): 75%; pest or weed control at 2000 g/ha (large crabgrass; [15]): 100%; pest or weed control at 500 g/ha (large crabgrass; [16]): 85%; pest or weed control at 125 g/ha (blackgrass): 30%; pest or weed control at 500 g/ha (blackgrass): 50%
